Results published in patent US5616327A (SRI International, priority 1994, dated 1997).
Where no end group is shown, it is not given here.

Target: RNA polymerase-RNA complex ("cores" with transcriptase activity) (Influenza A virus, UniProt P03428+P03431+P03433)
Test: biochemical
Design: species or system Influenza virus A/PR/8/34
Conditions: for inhibition at 0.05 µM / inhibition at 0.5 µM / inhibition at 5 µM / inhibition at 50 µM: read-out: % Inhibition (inhibition of polymerase by peptides)

**Q.** What does the source list for CSCC[C@H](NC(=O)[C@H](CC(N)=O)NC(=O)[C@H](CC(N)=O)NC(=O)[C@@H]1CCCN1C(=O)[C@H](CC(=O)O)NC(=O)CNC(=O)[C@H](CC(N)=O)NC(=O)CNC(=O)[C@H](CC(N)=O)NC(=O)[C@H](CC(C)C)NC(=O)[C@H](C)N)C(=O)N[C@@H](CC(=O)O)C(=O)N[C@@H](CCCCN)C(=O)N[C@@H](C)C(=O)N[C@H](C(=O)N[C@@H](CCCCN)C(=O)N[C@@H](CC(C)C)C(=O)N[C@@H](Cc1ccc(O)cc1)C(=O)O)C(C)C [Peptide 2]?
**A.** inhibition at 0.05 µM: -37%; inhibition at 0.5 µM: -10%; inhibition at 5 µM: -20%; inhibition at 50 µM: -13%

**Q.** How did the inhibition at 0.05 µM turn out when CC[C@H](C)[C@H](NC(=O)[C@H](CCC(N)=O)NC(=O)[C@@H](N)CCC(=O)O)C(=O)N[C@@H](C)C(=O)N[C@@H](CC(=O)O)C(=O)N[C@@H](CO)C(=O)N[C@@H](CCC(N)=O)C(=O)N[C@@H](Cc1c[nH]cn1)C(=O)N[C@@H](CCCNC(=N)N)C(=O)N[C@@H](CO)C(=O)N[C@@H](Cc1c[nH]cn1)C(=O)N[C@@H](CCCNC(=N)N)C(=O)N[C@@H](CCC(N)=O)C(=O)N[C@@H](CCSC)C(=O)N[C@H](C(=O)O)C(C)C [Peptide 4] was run?
**A.** Its inhibition at 0.05 µM is 38%.

**Q.** What about the inhibition at 0.5 µM of the same molecule?
**A.** The inhibition at 0.5 µM was 22%.

**Q.** And the inhibition at 5 µM?
**A.** The inhibition at 5 µM was 23%.

**Q.** And the inhibition at 50 µM?
**A.** Its inhibition at 50 µM is 32%.

**Q.** How did the inhibition at 0.05 µM turn out when CC(C)C[C@H](NC(=O)CNC(=O)[C@H](C)NC(=O)[C@H](CO)NC(=O)[C@H](CO)NC(=O)[C@H](CO)NC(=O)[C@@H]1CCCN1C(=O)[C@H](Cc1c[nH]cn1)NC(=O)[C@@H](NC(=O)CN)[C@@H](C)O)C(=O)N[C@@H](CCCCN)C(=O)N[C@@H](CC(N)=O)C(=O)N[C@@H](CC(=O)O)C(=O)N[C@@H](CC(C)C)C(=O)N[C@@H](CC(C)C)C(=O)N[C@@H](CCC(=O)O)C(=O)N[C@@H](CC(N)=O)C(=O)O [Peptide 5] was run?
**A.** The inhibition at 0.05 µM was 16%.

**Q.** And the inhibition at 0.5 µM?
**A.** Its inhibition at 0.5 µM is 14%.

**Q.** What about the inhibition at 5 µM of the same molecule?
**A.** Its inhibition at 5 µM is 1%.

**Q.** What about the inhibition at 50 µM of the same molecule?
**A.** The inhibition at 50 µM was -30%.

**Q.** CC[C@H](C)[C@H](NC(=O)[C@H](CCC(N)=O)NC(=O)[C@H](CCC(=O)O)NC(=O)[C@H](CS)NC(=O)[C@@H](NC(=O)[C@H](C)NC(=O)[C@@H](N)CS)[C@@H](C)O)C(=O)N[C@@H](C)C(=O)N[C@@H](CC(=O)O)C(=O)N[C@@H](CO)C(=O)N[C@@H](CCC(N)=O)C(=O)N[C@@H](Cc1c[nH]cn1)C(=O)N[C@@H](CCCNC(=N)N)C(=O)N[C@@H](CO)C(=O)N[C@@H](Cc1c[nH]cn1)C(=O)N[C@@H](CCCNC(=N)N)C(=O)N[C@@H](CCC(N)=O)C(=O)N[C@@H](CCSC)C(=O)N[C@H](C(=O)O)C(C)C [Peptide 6] was tested. Which “50% inhibition (concentration, in words)” value did it give?
**A.** The value was “picomolar range”.

**Q.** What about the inhibition at 1 µM (1 μM, read-out: % Inhibition (inhibition of polymerase by peptide 6)) of the same molecule?
**A.** The inhibition at 1 µM was greater than 100%.

**Q.** What about the inhibition at 10 µM (10 μM, read-out: % Inhibition (inhibition of polymerase by peptide 6)) of the same molecule?
**A.** Its inhibition at 10 µM is 98%.

**Q.** And the inhibition at 100 µM (100 μM, read-out: % Inhibition (inhibition of polymerase by peptide 6))?
**A.** Its inhibition at 100 µM is 81%.

**Q.** What about the inhibition at 0.001 µM (.001 μM, read-out: % Inhibition (inhibition of polymerase by peptide 6)) of the same molecule?
**A.** Its inhibition at 0.001 µM is 77%.

**Q.** And the inhibition at 0.01 µM (.010 μM, read-out: % Inhibition (inhibition of polymerase by peptide 6))?
**A.** The inhibition at 0.01 µM was 82%.

**Q.** What about the inhibition at 0.1 µM (.100 μM, read-out: % Inhibition (inhibition of polymerase by peptide 6)) of the same molecule?
**A.** The inhibition at 0.1 µM was 99%.

**Q.** How did the inhibition at 0.05 µM turn out when KREITFHGAKEISLS [Peptide 3] was run?
**A.** Its inhibition at 0.05 µM is 9%.

**Q.** And the inhibition at 0.5 µM?
**A.** Its inhibition at 0.5 µM is 8%.

**Q.** And the inhibition at 5 µM?
**A.** The inhibition at 5 µM was -9%.

**Q.** What about the inhibition at 50 µM of the same molecule?
**A.** Its inhibition at 50 µM is -30%.

**Q.** How did the inhibition at 0.05 µM turn out when LTVPSERGLQRRR [Peptide 1] was run?
**A.** The inhibition at 0.05 µM was 3%.

**Q.** What about the inhibition at 0.5 µM of the same molecule?
**A.** The inhibition at 0.5 µM was 2%.

**Q.** What about the inhibition at 5 µM of the same molecule?
**A.** The inhibition at 5 µM was 9%.

**Q.** What about the inhibition at 50 µM of the same molecule?
**A.** Its inhibition at 50 µM is 35%.
